Laboratory results reported in US11926627B1 (priority 2023, dated 2024).
Values after ≈ are worked out from the molar mass of the structure shown. Where two headings read alike, the source gives them in different places.

System: Mycobacterium tuberculosis H37Rv (ATCC: 25177)
Assay: Resazurin Microplate Assay (REMA), antitubercular activity against H37Rv
Type: cell-based
Conditions: 192 h, read-out: Antitubercular activity against Mycobacterium tuberculosis H37Rv (MIC)
[1] = H37Rv, ATCC: 25177, REMA, Middlebrook 7H9 broth, 8 days incubation at 37° C. then resazurin overnight

SMILES	MIC (H37RV)	MIC [1]
COC(=O)c1c(C(=O)OC)c2ccc3cc(C)ccc3n2c1C(=O)c1ccc(F)cc1 [7-METHYL-QUIN1, Dimethyl 1-(4-fluorobenzoyl)-7-methylpyrrolo[1,2-α]quinoline-2,3-dicarboxylate]	0.5 µg/mL (≈ 1.19 µM)	–
COC(=O)c1c(C(=O)OC)c2ccc3cc(C)ccc3n2c1C(=O)c1ccc(Br)cc1 [7-METHYL-QUIN2, Dimethyl 1-(4-bromobenzoyl)-7-methylpyrrolo[1,2-α]quinoline-2,3-dicarboxylate]	–	2 µg/mL (≈ 4.16 µM)
CCOC(=O)c1cc(C(=O)c2ccc(Cl)cc2)n2c1ccc1cc(C)ccc12 [7-METHYL-QUIN3, Ethyl 1-(4-chlorobenzoyl)-7-methylpyrrolo[1,2-α]quinoline-3-carboxylate]	–	4 µg/mL (≈ 10.2 µM)
COC(=O)c1c(C(=O)OC)c2ccc3cc(C)ccc3n2c1C(=O)c1ccc(Cl)cc1 [7-METHYL-QUIN4, Dimethyl 1-(4-chlorobenzoyl)-7-methylpyrrolo[1,2-α]quinoline-2,3-dicarboxylate]	–	4 µg/mL (≈ 9.18 µM)
